Experimental data as given in US20230031954A1, “TETRACYCLINE COMPOUNDS AND METHODS OF TREATMENT” (Tetraphase Phamaceuticals, Inc., priority 2016, published 2023).

Key:
[1] = system: subcutaneous MV4-11 leukemia model; test: MV4-11 xenografts: in vivo anti-tumor efficacy in CB17 SCID mice; set-up: species or system mouse; conditions: for tumor response: dosed at maximum tolerated dose, cytarabine 100 mg/kg I.P. QD, tigecycline 50 mg/kg I.P. BID
Experimental: The in vivo anti-tumor efficacy of Compounds 3a, 4a and 5 in the subcutaneous MV4-11 leukemia model in CB17 SCID mice was tested.
The MV4-11 cells (ATCC-CRL-9591) were maintained in vitro as a suspension culture at a density of 0.2-1.5×10^6 cells/ml in RPMI1640 medium supplemented with 10% heat inactivated fetal bovine serum, 100 U/ml penicillin and 100 μg/ml streptomycin at 37° C. in an atmosphere of 5% CO2 in air. The tumor cells were routinely subcultured twice weekly. The cells growing in an exponential growth phase were harvested and counted for tumor inoculation.
CB17 SCID, female, 6-8 weeks, weighing approximately 18-22 g.
Each mouse was inoculated subcutaneously at the right flank with MV4-11 tumor cells (10×10^6) in 0.2 ml of PBS (with Matrigel 1:1) for tumor development. The animals were randomized and treatment was started when the average tumor volume reached approximately 150-200 mm^3 for the efficacy study. The test article administration and the animal numbers in each group are shown below.
The major endpoint monitored was tumor growth delay or cure. Tumor sizes were measured twice weekly in two dimensions using a caliper, and the volume expressed in mm^3 using the formula: V=0.5 a×b^2 where a and b are the long and short diameters of the tumor, respectively. The tumor sizes were then used for the calculations of both T-C and T/C values. T-C is calculated with T as the median time (in days) required for the treatment group tumors to reach a predetermined size (e.g., 1,000 mm^3), and C is the median time (in days) for the control group tumors to reach the same size. […]
TGI was calculated for each group using the formula: TGI (%)=[1−(Ti−T0)/(Vi−V0)]×100; Ti is the average tumor volume of a treatment group on a given day, T0 is the average tumor volume of the treatment group on the first day of treatment, Vi is the average tumor volume of the vehicle control group on the same day with Ti, and V0 is the average tumor volume of the vehicle group on the first day of treatment.

MV4-11 cell line = test: MV4-11 anti-proliferation assay (CellTiterGlo, 72 hour); type: cell-based; conditions: Homo sapiens, MV4-11 cells
Experimental: MV4-11 cell line (MV-4-11, CRL-9591™) was obtained from American Type Culture Collection (ATCC). Cells were grown in a T-75 flask in RPMI Medium (GIBCO, Catalog No. 11875-093) containing 10% fetal bovine serum (ATCC, Catalog No. 30-2020) and penicillin-streptomycin (ATCC, Catalog No. 30-2300) at 37° C. in a humidified, 5% CO2 incubator.
(§1) 50 μL of cells (10,000 cells/well) were plated in a 96-well plate and incubated overnight at 37° C. in a humidified, 5% CO2 incubator. The next day, 50 μL of medium containing 3-fold serially diluted compounds in duplicate was added to the wells such that the starting concentration of the compound in the first pair of the wells was 10 μM. After 72 hour incubation with the compound, cell viability was measured in a luminometer after the addition of 100 μL/well CellTiterGlo reagent (Promega) as recommended by the manufacturer. The IC50 values for the compounds were calculated using SoftMax software.

THP-1 cells = test: THP-1 anti-proliferation assay (Cell Titer GLO, 72 hr); type: cell-based; conditions: Homo sapiens
Experimental: The inhibition of eukaryotic cell culture growth was established using THP-1 cells (ATCC Cat. #TIB-202), a human acute monocytic leukemia cell line. These are suspension cells. This cell-based assay for eukaryotic culture growth inhibition was performed in 384-well plate format to determine the in vitro cytotoxicity of the test compounds.
Compounds were solubilized in water. Compounds were diluted 1:2 in assay media and 1:2 serial dilutions were performed in 50:50 media:water mix. The high dose was 40 μM, 10% water final. 5 μL of compound at 5× the final concentration was dispensed to the 384 assay plate. 20 μL of THP-1 cells were added.
Compounds were plated in dose response format (10% water final concentration), followed by the addition of cells. Cells were grown and incubated with compounds in RPMI-1640 medium/pen/strep/L-glutamine/10% FBS/2-mercaptoethanol for 72 hr at 37° C. with 5% CO2. At the end of the incubation time, cells were assayed for viability using Cell Titer GLO (Promega).

K562 cell line = test: Proliferation assay in K562 cell line (CellTiterGlo, 72 hour); type: cell-based; conditions: Homo sapiens, K562 cells
Experimental: (§2) Compounds 1, 2, 3a, 4a and 5 as well as certain Compound included in FIGS. 15A-15M, 16A-16F and 17A-17D were tested in the following cell lines: MOLT4 and K562. Compounds 1, 2, 3a, 4a and 5 were also tested in the cell line HL60.
(§3) The MOLT4 cell line (CRL-1582™) and K562 cell line (CCL-243™) were obtained from American Type Culture Collection (ATCC). They were grown in a T-75 flask in RPMI Medium (GIBCO, Catalog No. 11875-093) containing 10% fetal bovine serum (ATCC, Catalog No. 30-2020) and penicillin-streptomycin (ATCC, Catalog No. 30-2300) at 37° C. in a humidified, 5% CO2 incubator. The HL60 cell line (CCL-240™) was obtained from American Type Culture Collection (ATCC). They were grown in a T-75 flask in DMEM Medium (GIBCO, Catalog No. 11965-092) containing 20% fetal bovine serum (ATCC, Catalog No. 30-2020) and penicillin-streptomycin (ATCC, Catalog No. 30-2300) at 37° C. in a humidified, 5% CO2 incubator.
as §1, with “(8,500” for “(10,000”

[2] = system: AML ex-vivo bone marrow samples; test: Antiproliferative activity against 15 AML ex-vivo bone marrow samples (Vivia's Native Environment cell depletion assay); type: cell-based, human; conditions: 48 hours post drug exposure
Experimental: Antiproliferative activity of Compound 3a and cytarabine was measured against 15 AML ex-vivo bone marrow samples (including two cytarabine-resistant samples). The assay used was Vivia's Native Environment cell depletion assay. An outline of the study is below: • Five different concentrations of each drug was used as a monotherapy • The incubation time point for measurement was 48 hours post drug exposure The results are shown graphically in FIG. 6.

HL60 cell line = test: Proliferation assay in HL60 cell line (CellTiterGlo, 72 hour); type: cell-based; conditions: Homo sapiens, HL-60, HL60 cells
Experimental: as §2, §3
as §1, with “(8,500” for “(10,000”

[3] = system: mitochondrial protein synthesis; test: Intact isolated rat heart mitochondrial protein synthesis assay ([S35]-methionine incorporation); type: biochemical; conditions: isolated rat heart mitochondria, 0.15 to 40 μM; read-out: dose-response curve IC50, mitochondrial protein synthesis
Experimental: The effect of Compound 3a on mitochondrial protein synthesis was determined using an intact isolated rat heart mitochondrial protein synthesis assay previously described [See, 1, 2 below]. Intact, highly coupled mitochondria isolated from normal rat hearts were incubated in an incubation medium containing [S^35]-methionine. The compounds were diluted to generate a final dose-response curve from 0.15 to 40 μM. The rate of incorporation of [S^35]-methionine into protein was measured at 20, 40, and 60 minutes of incubation for each sample using a filter paper disc assay and expressed as pmol methionine incorporated per mg mitochondrial protein as described [1, 2, 3 below]. The time course data for control and all drug concentrations were nearly linear. The slope of each time-course data plot is calculated as the least squares best fit line through zero and the three time points for each sample. The rate of protein synthesis varies modestly with each mitochondrial preparation (mean and SEM=20.3+/−2.4 pm/mg protein). To normalize for this variability, the rates were expressed as a percent of the rate of the control line for each preparation of mitochondria.
Each experiment was repeated three times.
Dose-response curves were obtained by expressing the percent of control obtained for each concentration of Compound 3a against the concentration of Compound 3a. […]

MOLT4 cell line = test: Proliferation assay in MOLT4 cell line (CellTiterGlo, 72 hour); type: cell-based; conditions: Homo sapiens, MOLT-4, MOLT4 cells
Experimental: as §2, §3
as §1, with “(8,500” for “(10,000”

| IC50 (MV4-11 cell line) [µM] | IC50 (THP-1 cells) [µM] | IC50 (K562 cell line) [µM] | IC50 (HL60 cell line) [µM] | IC50 [3] [µM] | IC50 (MOLT4 cell line) [µM] | Compound | tumor response [1] | tumor shrinkage ([1]; all animals treated, 12.5 mg/kg I.P., dose 1 and dose 2 of Table 1C) [%] | ex vivo activity against the tumor cells from frozen bone marrow of the AML patients ([2]; monotherapy) | EC50 ([2]; Homo sapiens, 15 AML ex-vivo bone marrow samples) [µM] |
| --- | --- | --- | --- | --- | --- | --- | --- | --- | --- | --- |
| – | – | – | – | – | – | Nc1ccn([C@@H]2O[C@H](CO)[C@@H](O)[C@@H]2O)c(=O)n1 [Cytarabine] | no tumor response | – | – | – |
| 0.1 | 0.75 | 0.11 | 0.37 | 0.7 | 0.12 | CCN1CCC[C@H]1c1cc(O)c2c(c1OC)C[C@H]1C[C@H]3[C@H](N)C(O)=C(C(N)=O)C(=O)[C@@]3(O)C(O)=C1C2=O [Compound 3a] | – | ≥ 70 | potent ex vivo activity | 0.17 |
| 0.17 | 0.64 | 0.16 | 0.51 | – | 0.13 | NC(=O)C1=C(O)[C@@H](N)[C@@H]2C[C@@H]3Cc4c(F)cc(NC(=O)CN5CCCC5)c(O)c4C(=O)C3=C(O)[C@]2(O)C1=O [Compound 5] | – | – | – | – |
| 0.13 | 0.9 | 0.13 | 0.41 | – | 0.13 | CCN[C@@H]1C(O)=C(C(N)=O)C(=O)[C@@]2(O)C(O)=C3C(=O)c4c(O)cc([C@@H]5CCCN5CC)c(OC)c4C[C@H]3C[C@@H]12 (single isomer, unassigned) [Compound 4a] | – | – | – | – |

| Compound | IC50 (MV4-11 cell line) [µM] | IC50 (THP-1 cells) [µM] | IC50 (K562 cell line) [µM] | IC50 (HL60 cell line) [µM] | IC50 [3] [µM] | IC50 (MOLT4 cell line) [µM] | tumor response [1] | tumor shrinkage ([1]; all animals treated, 12.5 mg/kg I.P., dose 1 and dose 2 of Table 1C) [%] | ex vivo activity against the tumor cells from frozen bone marrow of the AML patients ([2]; monotherapy) | EC50 ([2]; Homo sapiens, 15 AML ex-vivo bone marrow samples) [µM] |
| --- | --- | --- | --- | --- | --- | --- | --- | --- | --- | --- |
| CN(C)c1cc(NC(=O)CNC(C)(C)C)c(O)c2c1C[C@H]1C[C@H]3[C@H](N(C)C)C(O)=C(C(N)=O)C(=O)[C@@]3(O)C(O)=C1C2=O [Tigecycline, tigecycline, reference compound] | 4.64 | 29.1 | 7.2 | 15.4 | – | 5.1 | no tumor response | – | – | – |
